Among the data in patent US5155103A, “Methods of using new thieno-triazole-1,4-diazepino-2-carboxylic acid amides” (Boehringer Ingelheim GmbH, priority 1985, dated 1992) are IC50 values, retold here.

The first test deals with human thrombocytes (PAF-induced aggregation). Kind of test: inhibition of PAF-induced aggregation of human thrombocytes in vitro. The conditions noted are these: Homo sapiens, unit inferred; read-out: IC50. It counts as cell-based. As for the experimental part:
In order to determine the PAF-antagonistic effect of substances the PAF-induced aggregation of human thrombocytes in vitro is used. To obtain thrombocyte-rich plasma (TRP), blood is taken from an uncongested vein using a plastic syringe containing 3.8% sodium citrate solution. The ratio of sodium citrate solution to blood is 1:9. After careful mixing, the citrated blood is centrifuged for 20 minutes (150×g, 1200 rpm). The thrombocyte aggregation is measured using the method developed by Born and Cross (G. V. R. Born and M. J. Cross, J. Physiol. 168, 178 (1963)), PAF being added to the TRP with constant stirring to initiate aggregation.
The test substance is added 2 to 3 minutes before the aggregation is induced in a volume of 10 μl. The solvent used is either distilled water, ethanol and/or dimethylsulfoxide. Control mixtures are given corresponding volumes of these solvents. After the initial absorption has been recorded (2 to 3 minutes) aggregation is induced with PAF (5×10^-8 M).
To assess the effects of substances, the maximum of the first aggregation wave is used. The maximum absorption rate induced by PAF (=maximum aggregation×100%) is tested simultaneously in a parallel mixture (=control mixture in one of the channels of the 2-channel aggregometer) with each test mixture (second channel) and used as the 100% value.
The aggregation value achieved under the influence of the test substance is given as 100%.
Each test substance is investigated at concentrations of 10^-3 to 10^-8 M with a random test scope of n=4 for any inhibiting effect on the PAF-induced thrombocyte aggregation. Then a concentration-activity curve is drawn up using 3 concentrations and the IC50 is determined (concentration at 50% inhibition of aggregation).
`Cc1nnc2n1-c1sc(CCC(=O)N3CCOCC3)cc1C(c1ccccc1Cl)=NC2` [Example 1, 2-[4-(2-Chlorophenyl)-9-methyl-6H-thieno[3,2-f][1,2,4]-triazolo[4,3-a][1,4]diazepin-2-yl]-ethane-1-carboxylic acid morpholide]: the IC50 was 170 nM.

As to `CCN(CC)C(=O)CCc1cc2c(s1)-n1c(C)nnc1CN=C2c1ccccc1Cl` [Example 5, 2-[4-(2-Chlorophenyl)-9-methyl-6H-thieno[3,2-f][1,2,4]-triazolo[4,3-a][1,4]diazepin-2-yl]-ethane-1-carboxylic acid diethylamide], the IC50 came out at 700 nM.

Staying with this test, now noted: Table B; PAF 5×10^-8 M; human thrombocyte-rich plasma; read-out: PAF-Antag. IC50.
As for `Cc1nnc2n1-c1sc(Br)cc1C(c1ccccc1Cl)=NC2` [Brotizolam, reference compound], the IC50 was determined as 500 nM.

Regarding `CCc1cc2c(s1)-n1c(C)nnc1CN=C2c1ccccc1Cl` [Etizolam, reference compound], the IC50 came out at 500 nM.

On to `Cc1nnc2n1-c1sc(CCC(=O)N3CCOCC3)cc1C(c1ccccc1Cl)=NC2` [Example 1, 2-[4-(2-Chlorophenyl)-9-methyl-6H-thieno[3,2-f][1,2,4]-triazolo[4,3-a][1,4]diazepin-2-yl]-ethane-1-carboxylic acid morpholide], for which the IC50 is 170 nM.

`O=C(CCc1cc2c(s1)-n1c(nnc1C1CC1)CN=C2c1ccccc1Cl)N1CCOCC1` [Example 2]: the IC50 worked out at 330 nM.

For `Cc1nnc2n1-c1sc(C(=O)N3CCOCC3)cc1C(c1ccccc1Cl)=NC2` [Example 3, [4-(2-Chlorophenyl)-9-methyl-6H-thieno[3,2-f][1,2,4]triazolo-[4,3-a][1,4]diazepin-2-yl]-carboxylic acid morpholide], the IC50 came out at 710 nM.

On to `Cc1nnc2n1-c1sc(C(N)=O)cc1C(c1ccccc1Cl)=NC2` [Example 4, [4-(2-Chlorophenyl)-9-methyl-6H-thieno[3,2-f][1,2,4]triazolo-[4,3-a][1,4]diazepin-2-yl]-carboxylic acid amide], for which the IC50 came out at 8300 nM.

Turning to `CCN(CC)C(=O)CCc1cc2c(s1)-n1c(C)nnc1CN=C2c1ccccc1Cl` [Example 5, 2-[4-(2-Chlorophenyl)-9-methyl-6H-thieno[3,2-f][1,2,4]-triazolo[4,3-a][1,4]diazepin-2-yl]-ethane-1-carboxylic acid diethylamide], the IC50 turned out to be 720 nM.

Regarding `Cc1nnc2n1-c1sc(CC(=O)N3CCOCC3)cc1C(c1ccccc1Cl)=NC2` [Example 6, [4-(2-Chlorophenyl)-9-methyl-6H-thieno[3,2-f][1,2,4]triazolo-[4,3-a][1,4]-diazepin-2-yl]-methane carboxylic acid morpholide], the IC50 was determined as 1300 nM.

`Cc1nnc2n1-c1sc(CCCC(=O)N3CCOCC3)cc1C(c1ccccc1Cl)=NC2` [Example 7, 3-[4-(2-Chlorophenyl)-9-methyl-6H-thieno[3,2-f][1,2,4]-triazolo-[4,3-a][1,4]-diazepin-2-yl]-propane-1-carboxylic acid morpholide]: the IC50 turned out to be 850 nM.

`Cc1nnc2n1-c1sc(CCCCC(=O)N3CCOCC3)cc1C(c1ccccc1Cl)=NC2` [Example 8]: the IC50 was 870 nM.

Consider `O=C(CCc1cc2c(s1)-n1c(Br)nnc1CN=C2c1ccccc1Cl)N1CCOCC1` [Example 9], for which the half-inhibitory concentration (IC50) was found to be 470 nM.

Take `COc1nnc2n1-c1sc(CCC(=O)N3CCOCC3)cc1C(c1ccccc1Cl)=NC2` [Example 10, 2-[4(2-Chlorophenyl)-9-methoxy-6H-thieno[3,2-f][1,2,4]-triazolo-[4,3-a][1,4]-diazepin-2-yl]-ethane-1-carboxylic acid morpholide]: the IC50 stood at 200 nM.

Regarding `CNC(=O)CCc1cc2c(s1)-n1c(C)nnc1CN=C2c1ccccc1Cl` [Example 12, 2-[4-(2-Chlorophenyl)-9-methyl-6H-thieno[3,2-f][1,2,4]-triazolo[4,3-a][1,4]diazepin-2-yl]-ethane-1-carboxylic acid methylamide], the IC50 turned out to be 350 nM.

As for `Cc1nnc2n1-c1sc(CCC(=O)NC(C)C)cc1C(c1ccccc1Cl)=NC2` [Example 13, 2-[4-(2-Chlorophenyl)-9-methyl-6H-thieno[3,2-f][1,2,4]-triazolo[4,3-a][1,4]diazepin-2-yl]-ethane-1-carboxylic acid isopropylamide], the IC50 amounted to 1540 nM.

On to `Cc1nnc2n1-c1sc(CCC(=O)N(C)C)cc1C(c1ccccc1Cl)=NC2` [Example 14, 2-[4-(2-Chlorophenyl)-9-methyl-6H-thieno[3,2-f][1,2,4]-triazolo[4,3-a][1,4]diazepin-2-yl]-ethane-1-carboxylic acid dimethylamide], for which the concentration for half-maximal inhibition (IC50) is 2200 nM.

For the compound `Cc1nnc2n1-c1sc(CCC(=O)N3CCCC3)cc1C(c1ccccc1Cl)=NC2` [Example 15, 2-[4-(2-Chlorophenyl)-9-methyl-6H-thieno[3,2-f][1,2,4]-triazolo[4,3-a][1,4]diazepin-2-yl]-ethane-1-carboxylic acid pyrrolidide], the half-maximal inhibitory concentration (IC50) amounted to 380 nM.

`Cc1nnc2n1-c1sc(CCC(=O)N3CCCCC3)cc1C(c1ccccc1Cl)=NC2` [Example 16, 2-[4-(2-Chlorophenyl)-9-methyl-6H-thieno[3,2-f][1,2,4]-triazolo[4,3-a][1,4]diazepin-2-yl]-ethane-1-carboxylic acid piperidide]: the IC50 stood at 1330 nM.

For the compound `Cc1nnc2n1-c1sc(CCC(=O)N3CCN(C)CC3)cc1C(c1ccccc1Cl)=NC2` [Example 17, 2-[4-(2-Chlorophenyl)-9-methyl-6H-thieno[3,2-f][1,2,4]-triazolo[4,3-a][1,4]diazepin-2-yl]-ethane-1-carboxylic acid N'-methyl-piperazide], the IC50 turned out to be 900 nM.

As for `CCN(CC)C(=O)CCc1cc2c(s1)-n1c(nnc1C1CC1)CN=C2c1ccccc1Cl` [Example 18, 2-[4-(2-Chlorophenyl)-9-cyclopropyl-6H-thieno[3,2-f][1,2,4]triazolo[4,3-a][1,4]diazepin-2-yl]-ethane-1-carboxylic acid diethylamide], the IC50 turned out to be 800 nM.

On to `O=C(CCc1cc2c(s1)-n1cnnc1CN=C2c1ccccc1Cl)N1CCOCC1` [Example 19, 2-[4-(2-chlorophenyl)-6H-thieno[3,2-f][1,2,4]-triazolo[4,3-a][1,4]-diazepin-2-yl]-ethane-1-carboxylic acid morpholide], for which the concentration for half-maximal inhibition (IC50) is 8200 nM.

Regarding `Cc1nnc2n1-c1sc(CC(N)=O)cc1C(c1ccccc1Cl)=NC2` [Example 20], the half-inhibitory concentration (IC50) was found to be 5300 nM.

For `Cc1nnc2n1-c1sc(CCC(=O)N(CCO)CCO)cc1C(c1ccccc1Cl)=NC2` [Example 21], the IC50 was 2900 nM.

Consider `Cc1nnc2n1-c1sc(CCC(=O)N3CCOCC3)cc1C(c1ccccc1)=NC2` [Example 22, 2-[4-Phenyl-9-methyl-6H-thieno[3,2-f][1,2,4]triazolo-[4,3-a][1,4]diazepin-2-yl]-ethane-1-carboxylic acid morpholide], for which the IC50 amounted to 540 nM.

As for `Cc1nnc2n1-c1sc(CCC(=O)NCCO)cc1C(c1ccccc1Cl)=NC2` [Example 23], the IC50 was found to be 750 nM.

Turning to `O=C(CCc1cc2c(s1)-n1c(CCl)nnc1CN=C2c1ccccc1Cl)N1CCOCC1` [Example 24], the IC50 amounted to 1400 nM.

With `CCCOc1nnc2n1-c1sc(CCC(=O)N3CCOCC3)cc1C(c1ccccc1Cl)=NC2` [Example 26], the 50% inhibitory concentration (IC50) was determined as 8100 nM.

In the case of `Cc1nnc2n1-c1ccc(Cl)cc1C(c1ccccc1Cl)=NC2` [Triazolam, reference compound], the IC50 was determined as 1400 nM.

Usually IC50 stands for the concentration at which inhibition is half-maximal.
